The text below walks through data of publication PMC9974930 (Journal of medicinal chemistry, 2023).

The target in the series is T1, recombinant human sEH (HsEH) (Homo sapiens, UniProt P34913).
T1 sequence (P34913 1-555): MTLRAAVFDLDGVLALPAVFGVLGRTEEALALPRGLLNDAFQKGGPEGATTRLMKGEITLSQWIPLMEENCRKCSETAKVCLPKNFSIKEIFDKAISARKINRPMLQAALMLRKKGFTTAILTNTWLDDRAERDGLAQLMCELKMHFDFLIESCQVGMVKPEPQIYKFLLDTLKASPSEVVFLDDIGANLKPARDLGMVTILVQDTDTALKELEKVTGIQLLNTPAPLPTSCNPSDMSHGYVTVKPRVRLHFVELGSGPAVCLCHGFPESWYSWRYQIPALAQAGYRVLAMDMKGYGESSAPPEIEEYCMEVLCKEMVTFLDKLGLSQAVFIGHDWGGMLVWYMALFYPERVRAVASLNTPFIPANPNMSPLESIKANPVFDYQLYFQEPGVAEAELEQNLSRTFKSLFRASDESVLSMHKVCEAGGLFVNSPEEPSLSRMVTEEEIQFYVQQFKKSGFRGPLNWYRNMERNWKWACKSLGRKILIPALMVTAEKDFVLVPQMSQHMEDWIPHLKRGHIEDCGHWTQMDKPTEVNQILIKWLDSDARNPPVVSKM
The series is described as follows: biochemical. To be noted: LLE = pIC50-cLogP.
As to `CC(O)CNC(=O)C1CCCN(Cc2ccc(NC(=O)N[C@@]34C[C@@H]5C[C@@](C)(C[C@@](C)(C5)C3)C4)c(F)c2)C1` (stereo partly drawn) [D4, 1-(4-(3-((1r,3R,5S,7r)-3,5-Dimethyladamantan-1-yl)ureido)-3-fluorobenzyl)-N-(2-hydroxypropyl)piperidine-3-carboxamide], the “LLE (ligand lipophilicity efficiency)” value worked out at 6.119.

On to `C[C@]12C[C@@H]3C[C@](C)(C1)C[C@@](NC(=O)Nc1ccc(CN4CCCC(C(=O)N(CCO)CCO)C4)cc1F)(C3)C2` (stereo partly drawn) [D5, 1-(4-(3-((1r,3R,5S,7r)-3,5-Dimethyladamantan-1-yl)ureido)-3-fluorobenzyl)-N,N-bis(2-hydroxyethyl)piperidine-3-carboxamide], for which the “LLE (ligand lipophilicity efficiency)” value came out at 6.879.

As to `C[C@]12C[C@@H]3C[C@](C)(C1)C[C@@](NC(=O)Nc1ccc(CN4CCCC(C(=O)NCCO)C4)cc1F)(C3)C2` (stereo partly drawn) [D6, 1-(4-(3-((1r,3R,5S,7r)-3,5-Dimethyladamantan-1-yl)ureido)-3-fluorobenzyl)-N-(2-hydroxyethyl)piperidine-3-carboxamide], the “LLE (ligand lipophilicity efficiency)” value is 6.145.

On to `C[C@]12C[C@@H]3C[C@](C)(C1)C[C@@](NC(=O)Nc1ccc(CN4CCCC(C(=O)NC(CO)CO)C4)cc1F)(C3)C2` (stereo partly drawn) [D7, N-(1,3-Dihydroxypropan-2-yl)-1-(4-(3-((1r,3R,5S,7r)-3,5-dimethyladamantan-1-yl)ureido)-3-fluorobenzyl)piperidine-3-carboxamide], for which the “LLE (ligand lipophilicity efficiency)” value is reported as 7.008.

As for `C[C@]12C[C@@H]3C[C@](C)(C1)C[C@@](NC(=O)Nc1ccc(CN4CCCC(C(=O)NC(CO)(CO)CO)C4)cc1F)(C3)C2` (stereo partly drawn) [D8, N-(1,3-Dihydroxy-2-(hydroxymethyl)propan-2-yl)-1-(4-(3-((1r,3R,5S,7r)-3,5-dimethyladamantan-1-yl)ureido)-3-fluorobenzyl)piperidine-3-carboxamide], the “LLE (ligand lipophilicity efficiency)” value is on record as 7.992.

On to `C[C@]12C[C@@H]3C[C@](C)(C1)C[C@@](NC(=O)Nc1ccc(CN4CCCC(C(=O)N5CCN(CCO)CC5)C4)cc1F)(C3)C2` (stereo partly drawn) [D9, 1-((1r,3R,5S,7r)-3,5-Dimethyladamantan-1-yl)-3-(2-fluoro-4-((3-(4-(2-hydroxyethyl)piperazine-1-carbonyl)piperidin-1-yl)methyl)phenyl)urea], for which the “LLE (ligand lipophilicity efficiency)” value amounted to 5.790.

Consider `C[C@]12C[C@@H]3C[C@](C)(C1)C[C@@](NC(=O)Nc1ccc(CN4CCCC(C(=O)O)C4)cc1F)(C3)C2` (stereo partly drawn) [D, 1-(4-(3-((1r,3R,5S,7r)-3,5-Dimethyladamantan-1-yl)ureido)-3-fluorobenzyl) piperidine-3-carboxylic acid], for which the “LLE (ligand lipophilicity efficiency)” value turned out to be 7.656.

As to `C[C@]12C[C@@H]3C[C@](C)(C1)C[C@@](NC(=O)Nc1ccc(CN4CCC(C(N)=O)CC4)cc1F)(C3)C2` [E1, 1-(4-(3-((1r,7r)-3,5-Dimethyladamantan-1-yl)ureido)-3-fluorobenzyl)piperidine-4-carboxamide], the “LLE (ligand lipophilicity efficiency)” value is 5.557.

For the molecule `CC(O)CNC(=O)C1CCN(Cc2ccc(NC(=O)N[C@@]34C[C@@H]5C[C@@](C)(C[C@@](C)(C5)C3)C4)c(F)c2)CC1` (stereo partly drawn) [E2, 1-(4-(3-((1r,7r)-3,5-Dimethyladamantan-1-yl)ureido)-3-fluorobenzyl)-N-(2-hydroxypropyl)piperidine-4-carboxamide], the “LLE (ligand lipophilicity efficiency)” value is on record as 3.267.

As to `C[C@]12C[C@@H]3C[C@](C)(C1)C[C@@](NC(=O)Nc1ccc(CN4CCC(C(=O)NC(CO)CO)CC4)cc1F)(C3)C2` [E3, N-(1,3-Dihydroxypropan-2-yl)-1-(4-(3-((1r,7r)-3,5-dimethyladamantan-1-yl)ureido)-3-fluorobenzyl)piperidine-4-carboxamide], the “LLE (ligand lipophilicity efficiency)” value stood at 5.090.

For `C[C@]12C[C@@H]3C[C@](C)(C1)C[C@@](NC(=O)Nc1ccc(CN4CCC(C(=O)NC(CO)(CO)CO)CC4)cc1F)(C3)C2` [E4, N-(1,3-Dihydroxy-2-(hydroxymethyl)propan-2-yl)-1-(4-(3-((1r,7r)-3,5-dimethyladamantan-1-yl)ureido)-3-fluorobenzyl)piperidine-4-carboxamide], the “LLE (ligand lipophilicity efficiency)” value is 6.459.

Consider `C[C@]12C[C@@H]3C[C@](C)(C1)C[C@@](NC(=O)Nc1ccc(CN4CCC(C(=O)N(CCO)CCO)CC4)cc1F)(C3)C2` [E5, 1-(4-(3-((1r,7r)-3,5-Dimethyladamantan-1-yl)ureido)-3-fluorobenzyl)-N,N-bis(2-hydroxyethyl)piperidine-4-carboxamide], for which the “LLE (ligand lipophilicity efficiency)” value was found to be 5.585.

For `CC(=O)N1CCCN(C(=O)C2CCCN(C(=O)c3ccc(NC(=O)N[C@@]45C[C@@H]6C[C@@](C)(C[C@@](C)(C6)C4)C5)c(F)c3)C2)CC1` (stereo partly drawn) [F1, 1-(4-(3-(4-Acetyl-1,4-diazepane-1-carbonyl)piperidine-1-carbonyl)-2-fluorophenyl)-3-((1r,3R,5S,7r)-3,5-dimethyladamantan-1-yl)urea], the “LLE (ligand lipophilicity efficiency)” value is listed as 6.801.

As to `CCC(=O)N1CCCN(C(=O)C2CCCN(C(=O)c3ccc(NC(=O)N[C@@]45C[C@@H]6C[C@@](C)(C[C@@](C)(C6)C4)C5)c(F)c3)C2)CC1` (stereo partly drawn) [F2, 1-((1r,3R,5S,7r)-3,5-Dimethyladamantan-1-yl)-3-(2-fluoro-4-(3-(4-propionyl-1,4-diazepane-1-carbonyl)piperidine-1-carbonyl)phenyl)urea], the “LLE (ligand lipophilicity efficiency)” value turned out to be 6.164.

`CCC(C)C(=O)N1CCCN(C(=O)C2CCCN(C(=O)c3ccc(NC(=O)N[C@@]45C[C@@H]6C[C@@](C)(C[C@@](C)(C6)C4)C5)c(F)c3)C2)CC1` (stereo partly drawn) [F3, 1-((1r,3R,5S,7r)-3,5-Dimethyladamantan-1-yl)-3-(2-fluoro-4-(3-(4-(2-methylbutanoyl) −1,4-diazepane-1-carbonyl)piperidine-1-carbonyl)phenyl)urea]: the “LLE (ligand lipophilicity efficiency)” value came out at 4.847.

For `CCC(C)C(=O)N1CCCN(C(=O)C2CCCN(Cc3ccc(NC(=O)N[C@@]45C[C@@H]6C[C@@](C)(C[C@@](C)(C6)C4)C5)c(F)c3)C2)CC1` (stereo partly drawn) [G2, 1-((1r,3R,5S,7r)-3,5-Dimethyladamantan-1-yl)-3-(2-fluoro-4-((3-(4-(2-methylbutanoyl) −1,4-diazepane-1-carbonyl)piperidin-1-yl)methyl)phenyl)urea], the “LLE (ligand lipophilicity efficiency)” value stood at 4.986.

`C=CC(=O)N1CCCN(C(=O)C2CCCN(Cc3ccc(NC(=O)N[C@@]45C[C@@H]6C[C@@](C)(C[C@@](C)(C6)C4)C5)c(F)c3)C2)CC1` (stereo partly drawn) [G3, 1-(4-((3-(4-acryloyl-1,4-Diazepane-1-carbonyl)piperidin-1-yl)methyl)-2-fluorophenyl) −3-((1r,3R,5S,7r)-3,5-dimethyladamantan-1-yl)urea]: the “LLE (ligand lipophilicity efficiency)” value came out at 5.598.

On to `C=C(C)C(=O)N1CCCN(C(=O)C2CCCN(Cc3ccc(NC(=O)N[C@@]45C[C@@H]6C[C@@](C)(C[C@@](C)(C6)C4)C5)c(F)c3)C2)CC1` (stereo partly drawn) [G4, 1-((1r,3R,5S,7r)-3,5-Dimethyladamantan-1-yl)-3-(2-fluoro-4-((3-(4-methacryloyl-1,4-diazepane-1-carbonyl)piperidin-1-yl)methyl)phenyl)urea], for which the “LLE (ligand lipophilicity efficiency)” value was found to be 4.821.
